Read-outs that look alike come from different tables or passages of the source.
How the values were obtained:
[1] = test system: BRAFV600E mutant melanoma cell lines A2058, RPMI-7951 and M233; assay: MTS cell viability after miR-3157 mimic transfection, intrinsically resistant lines; assay type: cell-based; conditions: A2058, RPMI-7951, M233; 10 nM mimic, 72 hours (FIG. 11b)
Protocol: miR-3157 broadly affects melanoma cell line viability. Melanoma cell lines were divided into those that have the BRAFV600E mutation and are sensitive (a), intrinsically resistant (b) or acquired resistance to vemurafenib (c). Cell lines were transfected in triplicate with control miRNA or miR-3157 mimics (10 nM; n=2). Mock is transfectant only. Cell viability was determined using the MTS assay and calculated relative to mock transfected cells.
A375 cells were obtained from the Hubrecht Institute (Utrecht, The Netherlands); SKMEL-28, A2058 and RPMI-7951 were from the ATCC; SKMEL-57 was a gift from Dr. Patricia Groenen (Radboud University Nijmegen Medical Centre, The Netherlands); for cell line characteristics of M249, M249-AR4, M233 and M376 see (Atefi et al. 2011). A375-R, with in vitro acquired resistance to vemurafenib, was established in our lab by clonal selection of cells continually exposed to 1 μM vemurafenib. A375, A375-R, SKMEL-28, A2058 and SKMEL-57 were grown in DMEM GlutaMAX™-I (Gibco®), all other cell lines in RPMI-1640 (Gibco®). Media was supplemented with 10% FBS (Sigma), and cells were maintained in a humidified 37° C. incubator (Thermo Scientific) with 5% CO2. […]
Cells were seeded in 96-well plates and transfected the next day. […] Read-out was performed at 490 nm on a Multiskan FC plate reader (Thermo Scientific) at 72 hours post transfection.

[2] = test system: 3′UTR of RRM2; assay: 3′UTR Luciferase assay in HeLa cells; assay type: cell-based; conditions: 10 nM mimic, 24 hrs
Protocol: (§1) The 3′UTR sequences (Table 11) were synthesized by IDT Technologies, and cloned into psiCHECK™-2 (Promega). HeLa cells (5×10^4) were seeded in 24-well plates, and the next day transfected with 100 ng/well 3′UTR psiCHECK™-2 construct and 10 nM miR-3157 mimics, or control miRNA using Lipofectamine 2000 Transfection Reagent (Invitrogen). After 24 hrs cells were lysed using Passive Lysis Buffer and luciferase activity was measured using the Dual-Luciferase Reporter Assay System (Promega) and the Glomax-Multi Detection system (Promega) in a 96-well format according to the manufacturer's protocol. The Renilla luciferase signal was normalized to background Firefly luciferase, and changes in Renilla luciferase activity in the miR-3157 transfected cells calculated relative to the Renilla signal in control mimic transfected cells.

[3] = test system: 3′UTR of ERK1; assay: 3′UTR Luciferase assay in HeLa cells; assay type: cell-based; conditions: 10 nM mimic, 24 hrs
Protocol: as §1

[4] = test system: 3′UTR of AURKB; assay: 3′UTR Luciferase assay in HeLa cells; assay type: cell-based; conditions: 10 nM mimic, 24 hrs
Protocol: as §1

[5] = test system: A375Hu melanoma cell line; assay: Anti-proliferative effect of miRNA mimics, MTS assay; assay type: cell-based, human; conditions: 10 nM mimic, 72 hours after transfection
Protocol: (§2) The anti-proliferative effect of miRNA's in melanoma cell lines was determined with mature miRNA mimics from Ambion. For each cell line optimal growth and transfection conditions were determined prior to the experiment. Cells were plated in a 96-well plate at 3000 cells per well (100 uL) and were grown at 37 C, 5% CO2. Transfection mix (20 uL per well) was made for each miRNA mimic concentration with 0.3 uL (M249, M249-R4) or 0.5 uL (A375Hu, A375Hu-R1, A2058, RPMI-7951) X-TremeGene (Roche) per well (according to manufacturer's instructions) in Optimem (Invitrogen). Cells were transfected 24 hours after plating in triplicate. Medium was replaced 48 hours after transfection with fresh medium.

[6] = test system: A375Hu-R1 melanoma cell line; assay: as above; assay type: cell-based, human; conditions: 10 nM mimic, 72 hours after transfection
Protocol: as §2

[7] = test system: RPMI-7951 melanoma cell line; assay: as above; assay type: cell-based; conditions: 10 nM mimic, 72 hours after transfection
Protocol: as §2

[8] = test system: M249-AR (M249-R4) melanoma cell line; assay: as above; assay type: cell-based; conditions: 30 nM mimic, 72 hours after transfection
Protocol: as §2

[9] = test system: A2058 melanoma cell line; assay: as above; assay type: cell-based; conditions: 10 nM mimic, 72 hours after transfection
Protocol: as §2

[10] = test system: M249 melanoma cell line; assay: as above; assay type: cell-based; conditions: 5 nM mimic, 72 hours after transfection
Protocol: as §2

[11] = test system: A375Hu-R1 (vemurafenib resistant clone of A375Hu); assay: Anti-proliferative effect of small molecules, MTS assay; assay type: cell-based; conditions: Homo sapiens, A375Hu-R1 (A375-R), in vitro acquired resistance, 72 hours
Protocol: The anti-proliferative effect of small molecules in melanoma cell lines was determined with V600E BRAF inhibitor, vemurafenib (PLX-4032, 51267, Selleck) and MEK inhibitor, selumetinib (AZD-6244, S1008, Selleck). For each cell line optimal growth conditions were determined prior to the experiment. Cells were plated in a 96-well plate at 3000 cells per well (100 uL) and were grown at 37 C, 5% CO2. Small molecule mix (50 uL per well) was made for each concentration in medium. Cells were treated in triplicate 24 hours after plating. After 72 hours medium was replaced and viability was measured with the MTS assay (Promega) according to manufacturer's instructions. Cell viability inhibition is normalized against loading control (0.1% DMSO) and GraphPad Prism was used to fit the curve and calculate GI50 values.
The A375Hu melanoma cell line was used to make a vemurafenib (PLX-4032) resistant sub line. A375Hu cells were plated at low density in 96-well plates and exposed to 1 uM PLX-4032. Cell growth was monitored until clonal growth was observed. Wells with clonal growth (approximately 5%) were replated in a 96-well plate and exposed to 1 uM PLX-4032. The 10 best growing clones were replated in 6-well plates in 1 uM PLX-4032 and the three best growing clones were used for further culturing. Clone number 1 (A375Hu-R1) grew best with 1 uM PLX-4032 and was chosen for additional experiments.

[12] = test system: phospho-ERK1/2; conditions: cited from earlier work

hsa-miR-3157-5p: mature miRNA mimic, SEQ ID NO 6 UUCAGCCAGGCUAGUGCAGUCU (listed as RNA, chemistry not given here)
cell viability relative to mock transfected cells [1]: viability was reduced
luciferase activity, RRM2 3′UTR with mutated miR-3157 binding site [2]: remained unaffected
luciferase activity, RRM2 3′UTR unmodified ([2]; relative to control mimic): reduced luciferase activity
luciferase activity, ERK1 3′UTR with mutated miR-3157 binding site [3]: remained unaffected
luciferase activity, ERK1 3′UTR unmodified ([3]; relative to control mimic): reduced luciferase activity
luciferase activity, AURKB 3′UTR with mutated miR-3157 binding site [4]: remained unaffected
luciferase activity, AURKB 3′UTR unmodified ([4]; relative to control mimic): reduced luciferase activity
A375Hu % Viability 10 nM [5]: 42%
A375Hu-R1 % Viability 10 nM [6]: 67%
RPMI-7951 % Viability 10 nM [7]: 26%
M249-AR % Viability 30 nM [8]: 53%
A2058 % Viability 10 nM [9]: 43%
M249 % Viability 5 nM [10]: 42%

CCCS(=O)(=O)Nc1ccc(F)c(C(=O)c2c[nH]c3ncc(-c4ccc(Cl)cc4)cc23)c1F [Vemurafenib, N-(3-{[5-(4-chlorophenyl)-1H-pyrrolo[2,3-b]pyridin-3-yl]carbonyl}-2,4-difluorophenyl)propane-1-sulfonamide]
GI50 [11]: > 10 µM
pERK ([12]; A375, A2058 and M249 (Atefi et al. 2011, Nazarian et al. 2010)): downregulates
pERK ([12]; M249-AR4 and M376 (Atefi et al. 2011, Nazarian et al. 2010)): not
